From ChEMBL document CHEMBL5653604, “ZSTK474, a novel phosphatidylinositol 3-kinase inhibitor identified using the JFCR39 drug discovery system” (Acta Pharmacol Sin, 2010)

Key:
[1] = target: T1, Phosphatidylinositol 4,5-bisphosphate 3-kinase catalytic subunit delta isoform (Homo sapiens, UniProt O00329); test: Inhibition of p110 delta (unknown origin)
T1 sequence (O00329 whole entry): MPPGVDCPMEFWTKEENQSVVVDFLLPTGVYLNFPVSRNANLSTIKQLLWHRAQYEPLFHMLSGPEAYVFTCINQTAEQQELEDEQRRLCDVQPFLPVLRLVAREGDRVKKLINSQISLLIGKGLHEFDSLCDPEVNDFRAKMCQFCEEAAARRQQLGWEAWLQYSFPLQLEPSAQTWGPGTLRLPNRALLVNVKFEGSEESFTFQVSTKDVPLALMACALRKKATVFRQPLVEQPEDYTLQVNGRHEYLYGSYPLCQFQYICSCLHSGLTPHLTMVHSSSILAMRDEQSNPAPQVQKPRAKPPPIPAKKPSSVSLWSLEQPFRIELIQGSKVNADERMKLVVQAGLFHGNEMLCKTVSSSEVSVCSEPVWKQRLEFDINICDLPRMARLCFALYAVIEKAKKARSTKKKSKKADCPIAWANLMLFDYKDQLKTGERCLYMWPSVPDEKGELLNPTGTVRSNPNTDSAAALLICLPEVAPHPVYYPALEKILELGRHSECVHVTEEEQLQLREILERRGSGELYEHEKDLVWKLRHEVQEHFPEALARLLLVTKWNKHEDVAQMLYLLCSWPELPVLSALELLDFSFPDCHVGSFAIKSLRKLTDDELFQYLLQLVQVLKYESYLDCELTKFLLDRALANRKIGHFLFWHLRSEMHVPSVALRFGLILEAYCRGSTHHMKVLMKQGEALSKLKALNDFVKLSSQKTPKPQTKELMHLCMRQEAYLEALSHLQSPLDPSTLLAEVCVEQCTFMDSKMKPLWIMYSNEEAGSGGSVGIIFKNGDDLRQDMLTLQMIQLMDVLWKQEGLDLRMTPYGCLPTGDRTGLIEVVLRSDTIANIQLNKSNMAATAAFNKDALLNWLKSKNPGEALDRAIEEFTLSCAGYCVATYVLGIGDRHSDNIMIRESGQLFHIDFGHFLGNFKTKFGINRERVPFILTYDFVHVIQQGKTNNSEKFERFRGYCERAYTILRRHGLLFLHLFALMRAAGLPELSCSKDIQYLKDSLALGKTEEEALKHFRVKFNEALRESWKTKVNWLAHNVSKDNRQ

[2] = target: Phosphatidylinositol 4,5-bisphosphate 3-kinase catalytic subunit beta isoform (Homo sapiens, UniProt P42338); test: Inhibition of p110 beta (unknown origin)
Chain of Phosphatidylinositol 4,5-bisphosphate 3-kinase catalytic subunit beta isoform (P42338 whole entry, canonical isoform): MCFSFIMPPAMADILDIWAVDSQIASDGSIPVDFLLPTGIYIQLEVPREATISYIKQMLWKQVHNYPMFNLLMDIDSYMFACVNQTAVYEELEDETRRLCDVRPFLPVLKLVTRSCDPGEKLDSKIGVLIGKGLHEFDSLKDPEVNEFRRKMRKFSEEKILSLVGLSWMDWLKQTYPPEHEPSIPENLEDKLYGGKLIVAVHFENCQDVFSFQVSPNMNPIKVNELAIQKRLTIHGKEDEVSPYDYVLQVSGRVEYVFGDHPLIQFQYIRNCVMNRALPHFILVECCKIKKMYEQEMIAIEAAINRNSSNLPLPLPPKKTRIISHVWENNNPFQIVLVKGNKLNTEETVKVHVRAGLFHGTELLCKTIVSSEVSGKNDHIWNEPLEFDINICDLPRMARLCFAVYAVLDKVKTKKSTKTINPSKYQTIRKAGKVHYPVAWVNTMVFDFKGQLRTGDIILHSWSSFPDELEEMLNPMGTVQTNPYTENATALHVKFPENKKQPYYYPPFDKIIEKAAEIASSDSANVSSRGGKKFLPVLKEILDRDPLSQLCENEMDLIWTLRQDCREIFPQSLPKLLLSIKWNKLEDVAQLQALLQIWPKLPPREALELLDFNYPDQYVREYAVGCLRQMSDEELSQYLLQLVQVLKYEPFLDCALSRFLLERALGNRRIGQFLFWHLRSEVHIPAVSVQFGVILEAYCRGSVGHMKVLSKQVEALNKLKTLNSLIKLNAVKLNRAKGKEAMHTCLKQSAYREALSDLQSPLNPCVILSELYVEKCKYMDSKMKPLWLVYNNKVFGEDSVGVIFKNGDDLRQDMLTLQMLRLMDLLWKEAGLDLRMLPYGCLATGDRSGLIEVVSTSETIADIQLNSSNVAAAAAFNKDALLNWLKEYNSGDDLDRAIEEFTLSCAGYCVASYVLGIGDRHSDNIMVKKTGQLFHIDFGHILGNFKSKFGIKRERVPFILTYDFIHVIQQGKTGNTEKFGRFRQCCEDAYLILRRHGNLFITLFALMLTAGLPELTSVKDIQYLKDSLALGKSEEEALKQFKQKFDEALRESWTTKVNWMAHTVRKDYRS

[3] = target: Phosphatidylinositol 4,5-bisphosphate 3-kinase catalytic subunit alpha isoform (Homo sapiens, UniProt P42336); test: Inhibition of p110 alpha (unknown origin)
Chain of Phosphatidylinositol 4,5-bisphosphate 3-kinase catalytic subunit alpha isoform (P42336 whole entry, canonical isoform): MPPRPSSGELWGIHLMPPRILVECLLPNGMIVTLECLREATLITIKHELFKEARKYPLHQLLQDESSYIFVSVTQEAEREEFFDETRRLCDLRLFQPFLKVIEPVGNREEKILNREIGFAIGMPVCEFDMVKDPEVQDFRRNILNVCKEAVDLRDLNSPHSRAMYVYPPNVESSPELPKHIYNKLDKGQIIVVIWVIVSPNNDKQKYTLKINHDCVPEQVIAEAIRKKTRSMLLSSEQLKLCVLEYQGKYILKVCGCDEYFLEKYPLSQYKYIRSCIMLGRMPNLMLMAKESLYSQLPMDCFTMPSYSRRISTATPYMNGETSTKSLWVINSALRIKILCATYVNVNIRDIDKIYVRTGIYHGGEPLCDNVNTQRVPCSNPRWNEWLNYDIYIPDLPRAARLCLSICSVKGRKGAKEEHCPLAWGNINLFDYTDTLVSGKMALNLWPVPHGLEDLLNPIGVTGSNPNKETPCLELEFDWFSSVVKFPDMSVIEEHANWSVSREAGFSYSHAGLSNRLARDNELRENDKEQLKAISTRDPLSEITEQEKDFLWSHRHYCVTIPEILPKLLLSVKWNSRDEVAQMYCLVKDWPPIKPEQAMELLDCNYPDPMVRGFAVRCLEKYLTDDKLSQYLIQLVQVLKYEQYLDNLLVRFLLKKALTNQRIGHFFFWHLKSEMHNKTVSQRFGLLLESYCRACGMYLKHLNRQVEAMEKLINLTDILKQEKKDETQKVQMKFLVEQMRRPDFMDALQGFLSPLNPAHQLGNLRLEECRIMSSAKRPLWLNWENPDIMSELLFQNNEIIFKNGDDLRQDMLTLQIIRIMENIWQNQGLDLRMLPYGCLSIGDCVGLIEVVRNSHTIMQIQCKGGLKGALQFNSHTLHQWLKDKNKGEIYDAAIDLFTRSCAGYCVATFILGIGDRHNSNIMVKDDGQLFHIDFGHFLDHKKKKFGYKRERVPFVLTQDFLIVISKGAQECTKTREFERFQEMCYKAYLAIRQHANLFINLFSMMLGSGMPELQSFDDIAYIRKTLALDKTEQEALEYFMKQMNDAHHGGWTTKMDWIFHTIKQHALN

[4] = target: Phosphatidylinositol 4,5-bisphosphate 3-kinase catalytic subunit gamma isoform (Homo sapiens, UniProt P48736); test: Inhibition of p110 gamma (unknown origin)
Chain of Phosphatidylinositol 4,5-bisphosphate 3-kinase catalytic subunit gamma isoform (P48736 whole entry, canonical isoform): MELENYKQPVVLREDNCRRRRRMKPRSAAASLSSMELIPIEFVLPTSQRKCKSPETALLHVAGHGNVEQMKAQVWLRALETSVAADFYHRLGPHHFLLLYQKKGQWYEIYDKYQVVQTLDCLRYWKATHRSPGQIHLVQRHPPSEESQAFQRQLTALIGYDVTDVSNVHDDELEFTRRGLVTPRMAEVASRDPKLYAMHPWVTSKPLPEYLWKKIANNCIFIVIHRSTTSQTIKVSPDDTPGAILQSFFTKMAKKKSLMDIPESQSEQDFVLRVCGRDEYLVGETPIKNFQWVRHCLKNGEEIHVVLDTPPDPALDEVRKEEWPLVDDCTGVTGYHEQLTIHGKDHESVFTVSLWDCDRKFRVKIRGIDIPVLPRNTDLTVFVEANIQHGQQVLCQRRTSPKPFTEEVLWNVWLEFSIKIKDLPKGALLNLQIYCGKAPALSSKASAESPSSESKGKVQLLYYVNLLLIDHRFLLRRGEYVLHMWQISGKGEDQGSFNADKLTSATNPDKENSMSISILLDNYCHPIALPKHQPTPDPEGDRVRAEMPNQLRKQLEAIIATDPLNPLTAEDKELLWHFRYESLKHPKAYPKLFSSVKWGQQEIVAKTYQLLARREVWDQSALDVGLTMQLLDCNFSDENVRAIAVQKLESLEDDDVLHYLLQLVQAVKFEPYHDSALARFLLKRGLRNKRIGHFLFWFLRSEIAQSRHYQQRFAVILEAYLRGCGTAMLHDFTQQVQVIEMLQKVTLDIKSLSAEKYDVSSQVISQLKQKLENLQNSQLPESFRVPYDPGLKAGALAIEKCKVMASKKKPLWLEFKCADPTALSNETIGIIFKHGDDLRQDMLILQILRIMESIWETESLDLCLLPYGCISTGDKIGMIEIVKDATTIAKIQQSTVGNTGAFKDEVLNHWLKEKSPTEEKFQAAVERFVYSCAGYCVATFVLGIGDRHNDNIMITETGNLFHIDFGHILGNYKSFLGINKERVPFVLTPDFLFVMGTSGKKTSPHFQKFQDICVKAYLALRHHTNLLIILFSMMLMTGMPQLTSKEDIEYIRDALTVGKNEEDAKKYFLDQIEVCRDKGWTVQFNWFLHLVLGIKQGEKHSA

OVCAR-8 = test: Growth inhibition of human OVCAR-8 cells assessed as reduction in cell viability incubated for 48 hrs by SRB assay; assay type: functional
SK-OV-3 = test: Growth inhibition of human SK-OV-3 cells assessed as reduction in cell viability incubated for 48 hrs by SRB assay; assay type: functional
RXF 631 = test: Growth inhibition of human RXF 631 cells assessed as reduction in cell viability incubated for 48 hrs by SRB assay; assay type: functional
NCI-H460 = test: Growth inhibition of human NCI-H460 cells assessed as reduction in cell viability incubated for 48 hrs by SRB assay; assay type: functional

Compound: C=CCN(/C=C1/C(=O)O[C@H](COC)[C@@]2(C)C1=C(O)C(=O)C1=C2[C@H](OC(C)=O)C[C@]2(C)C(=O)CC[C@@H]12)CC=C [SONOLISIB]
- IC50 [1]: 0.003 µM
- IC50 [2]: > 0.3 µM
- IC50 [3]: 0.006 µM

Compound: COc1ccc(Cl)c(Nc2nc3ccccc3nc2NS(=O)(=O)c2cccc(NC(=O)C(C)(C)N)c2)c1 [PILARALISIB]
- IC50 [4]: 0.023 µM
- IC50 [1]: 0.036 µM

Compound: COc1cc(Nc2nc3ccccc3nc2NS(=O)(=O)c2ccc(NC(=O)c3ccc(C)c(OC)c3)cc2)cc(OC)c1
- IC50 [2]: 0.113 µM

Compound: COc1ncc(-c2ccc3nccc(-c4ccnnc4)c3c2)cc1NS(=O)(=O)c1ccc(F)cc1F [OMIPALISIB]
- IC50 [4]: 0.001 µM

Compound: FC(F)c1nc2ccccc2n1-c1nc(N2CCOCC2)nc(N2CCOCC2)n1 [ZSTK-474]
- GI50 (OVCAR-8): 1.26 µM
- GI50 (SK-OV-3): 0.398 µM
- GI50 (RXF 631): 0.316 µM
- GI50 (NCI-H460): 0.372 µM
